Laboratory results reported in paper PMC4450091 (JOM (Warrendale, Pa. : 1989), 2015).
Where no end group is shown, it is not given here.

How the values were obtained:
[1] = tested on: Streptococcus mutans ATCC 25175; type: cell-based; details: ATCC 25175, 24 h
[2] = tested on: Escherichia coli ATCC 2592; type: cell-based; details: ATCC 2592, 24 h

Sequence | Minimum inhibitory concentration (MIC), S. mutans [1] [µM] | Minimum inhibitory concentration (MIC), E. coli [2] [µM]
SRPNGYGGSESSGGGLKLLKKLLKLLKKL [TiBPS2-AMP1] | 336.5 | –
RPRENRGRERGLGGGKWKRWWWWR [TiBPS1-AMP2] | – | 80.8
HAYKQPVLSTPFGGGKWKRWWWWR [TiBPS3-AMP2] | – | 167.4
